Results reported in PubChem BioAssay (NCI).
Several values for one entry are separate records, joined by “and”; a condition that tells them apart may be missing. Identical values can stand only once.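 Where inhibition never reached the appropriate level, the endpoint shown equals the highest concentration tested. Otherwise, values were interpolated linearly from a five-concentration, 48-hour dose response in 96-well plates. At the GI50, growth is halved. At the TGI there is no net growth.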

Experiments:
Assay in all cases: DTP human tumour cell line panel, 48 h
[1] = system: SK-OV-3 ovarian
[2] = system: SF-295 CNS
[3] = system: UACC-62 melanoma
[4] = system: SF-539 CNS
[5] = system: NCI-H23 lung
[6] = system: HOP-92 NSCLC
[7] = system: HOP-62 NSCLC
[8] = system: MALME-3M melanoma
[9] = system: NCI/ADR-RES ovarian

Structure (SMILES)	TGI [1] [µM]	TGI [2] [µM]	TGI [3]	TGI [4]	TGI [5]	TGI [6] [µM]	TGI [7] [µM]	TGI [8] [µM]	GI50 [2] [µM]	GI50 [3] [µM]	GI50 [5] [µM]	GI50 [6] [µM]	GI50 [7] [µM]	GI50 [9] [µM]	TGI [9] [µM]	GI50 [1] [µM]	GI50 [4] [µM]	GI50 [8] [µM]
NCC(=O)OCN1C(=O)C2C3C=CC(C2C1=O)C1C2C(=O)N(COC(=O)CN)C(=O)C2C31 (stereo not drawn)	> 100	> 100	50.5 µM and 56 µM	68.9 µM and 38.2 µM	49.1 µM and 84.7 µM	> 100	> 100											
CC(C)[C@H](COC(C)(C)C)N=CN1CSc2ccccc21	78.3	67.4	> 100 µM	65.6 µM	> 100 µM	41.9	> 100											
CN1C(=O)NC2(O)c3ccccc3C(=O)C12O (stereo not drawn)	> 100	> 100	> 100 µM		> 100 µM	> 100		> 100										
CC(=O)c1ccc(NCn2nc(-c3ccccc3O)oc2=S)cc1		> 100	> 100 µM		> 100 µM	> 100	> 100		> 100	35.8	92.6	42.8	> 100	> 100	> 100			
COc1ccc2c3c([nH]c2c1[N+](=O)[O-])C(C)N(C(=O)/C=C/c1ccccc1)CC3 (stereo not drawn)		5.88	9.06 µM	23.2 µM	> 100 µM		70.4											
CC(=O)N1C(=O)C(=O)c2cc(Cl)ccc21	> 100	> 100	> 100 µM	> 100 µM	> 100 µM			> 100										
COC(=O)/C1=C/C2CC(/C=C(/c3ccccc3)C(=O)O1)C2	72.9	> 100	67.4 µM	89.8 µM	38.4 µM		95	54.2										
CCC(=O)[O-].CCC(=O)[O-].N.N.N.N.[Co+3].[O-][Cl+3]([O-])([O-])[O-]	> 100	> 100	> 100 µM	> 100 µM	> 100 µM	> 100	> 100	> 100	> 100	> 100	> 100	27.2	> 100			> 100	> 100	> 100
C#Cc1cccc(N2C(=O)CC(=P(c3ccccc3)(c3ccccc3)c3ccccc3)C2=O)c1	> 100	> 100	> 100 µM		> 100 µM		> 100	> 100										
O=C(O)c1cc2c3c(c1)[C@H]1C=CC[C@H]1CN3CC1CC=CC21 (stereo partly drawn)	> 100	> 100	> 100 µM	> 100 µM	> 100 µM	> 100	> 100	> 100										
O=C1c2ccccc2C(=O)N1C/C=N/NS(=O)(=O)c1ccc(Cl)cc1		> 100	> 100 µM	> 100 µM	> 100 µM		> 100	> 100										
CC(=O)C1C(=O)C(=O)N(c2ccc(Cl)cc2C)C1=O (stereo not drawn)		> 100	> 100 µM	> 100 µM	> 100 µM	> 100	> 100	> 100										
CCCCCCCCCCSS(=O)(=O)c1ccc(C)cc1	42.9	18.1	16.1 µM	3.67 µM	35.4 µM	27.2	40.1	31.3										
CCOc1ccccc1N=C(NC(=O)CC)SC	> 10	> 100	> 100 µM	> 100 µM	> 100 µM	> 10	> 100	> 100	> 100	> 100	> 10		> 100				> 100	> 10
C/C(=C\c1ccccc1)C(O)S(=O)(=O)O (stereo not drawn)	> 100	> 100	> 100 µM		> 100 µM		> 100	> 100										
CC(=O)[CH-]C(=O)c1ccccc1.CC(=O)[CH-]C(=O)c1ccccc1.[O-]c1ccc(O)cc1.[O-]c1ccc(O)cc1.[Ti+4]	76.8	34.3	31.3 µM	24.1 µM		28.9	41.5	33.5	16.5	16.2		14.1	18.8			24.4	11.7	18.1
CC(C)c1cccc2sc(NC(=O)C(=O)CC(=O)c3ccc(F)cc3)nc12	> 100	> 100	> 100 µM	> 100 µM	> 100 µM	> 100	> 100	> 100										
